# Measurements from ChEMBL document CHEMBL3507680, “University of Dundee, Gates Library screen for HepG2 cell viability”.
# Experiment: Human HepG2 cell viability assay in 384 well format
# Type: toxicity, cell-based
# Design: dose 125 nL, time 70.5 hour; concentration not given beside the values
# Conditions: HepG2 cells, read-out: Inhibition
row,SMILES,cytotoxicity at 70.5 h
1,COc1cccc2c1OCC(Cc1cc(C(N)=O)ccn1)C2 (centres undefined),26%
2,CCOCC1CN(S(C)(=O)=O)Cc2cnn(C)c21 (centres undefined),-11.1%
3,CNC(=O)NC(=O)CCSc1ccccc1Cl,-1.01%
4,CNS(=O)(=O)c1cccc(CNC(=O)c2c(C)nn(C)c2C)c1,-3.24%
5,CN1CCC(c2cc(C(F)(F)F)n3ccnc3n2)CC1,24.8%
6,CN(C)CCNC(=O)c1noc2c1CN(C(=O)N(C)C)CC2,-6.62%
7,NC(=O)[C@@H]1Cc2ccccc2CN1S(=O)(=O)N1CCCCCC1,-4.6%
8,Cc1cc(C(F)(F)F)nn1CC(C)C(=O)Nc1ccncc1 (centres undefined),1.22%
9,CCc1nccn1CCC(=O)N1CC[C@@H](c2ccc(F)cc2)[C@H](O)C1,-12.3%
10,CC(C)(C)c1cc(NC(=O)CN(Cc2ccco2)Cc2cccs2)on1,4.01%
11,Cc1ccc(Cc2cnc(NC(=O)C3CNC(=O)N3)s2)cc1F (centres undefined),-0.116%
12,O=C(CNC(=O)N1CCc2c([nH]c3ccc(Cl)cc23)C1)NC1CCCC1,-0.711%
13,Cn1cc(CN2C[C@@H]3COC[C@]3(CNC(=O)c3ccco3)C2)cn1,-10.1%
14,CC(C)n1ccnc1C1CCCN(c2ccnc3ccccc23)C1 (centres undefined),-0.236%
15,Cc1ccc(CN(CCCn2ccnc2)Cc2ccccc2O)s1,3.23%
16,CN(C)C(=O)[C@H]1CCS(=O)(=O)[C@@H]2CN(c3ncccn3)C[C@H]12,-4.18%
17,CCCN1CCN(C(=O)CCn2cccc2)CC1,-5.28%
18,CCC1=NN2C(=N)/C(=C\c3cccn3-c3ccc(Cl)cc3)C(=O)N=C2S1,9.55%
19,COc1cccc2c1OCC(CNC(=O)Cc1c(C)nc(N)nc1C)C2 (centres undefined),-7.12%
20,CCC(CNC(=O)COC)Oc1cccc(F)c1 (centres undefined),14.9%
21,CCOC(=O)c1cn(CC(O)c2ccccc2OC)nn1 (centres undefined),7.58%
22,Nc1nc2c(c(N3CCC(CN4CCCC4=O)CC3)n1)CCNCC2,-8.27%

row,SMILES,cytotoxicity at 70.5 h
1,CN(C)C(=O)CNC(=O)c1cc(Br)c2c(c1)OCCO2,-3.47%
2,Cc1cccc(CN2CCC(c3nnsc3S(C)(=O)=O)CC2)n1,-4.43%
3,CCOCC1CN(Cc2ccncc2)Cc2nn(C)cc21 (centres undefined),-7.15%
4,COCCCN1CC2(CCN(C(=O)Cc3csc(C)n3)CC2)CC1=O,-7.77%
5,CCCS(=O)(=O)N1CC[C@H]2OCC[C@@]2(c2nnc(C)o2)C1,8.91%
6,CC(O)CN1CCN(Cc2cccc(C#N)c2)CC1 (centres undefined),-4.63%
7,CC(C)CN1C(=O)CO[C@@H]2CN(C(=O)N(C)C)C[C@H]21,2.11%
8,CCOc1cccc(CCNC(=O)NC2CCc3[nH]ncc3C2)n1 (centres undefined),24.3%
9,Cc1nc(CSc2nc(=O)ccn2C(C)C)cs1,-6.6%
10,Cc1cc2nc(CO[C@H]3CN(C4CCC4)C[C@H]3F)[nH]c2cc1C,-2.01%
11,Cc1c(F)cccc1S(=O)(=O)NCC(C)(C)CC(C)O (centres undefined),-5.55%
12,CN(C)Cc1nc(C2(NC(=O)Nc3cccc(F)c3)CCCC2)no1,-2.26%
13,CC(C)CC(O)C1CCN(C(=O)c2coc(CN3CCOCC3)c2)CC1 (centres undefined),-7.32%
14,Cn1cc(CN2CCCN(C(=O)c3ccccn3)CC2)cn1,-1.29%
15,O=S1(=O)CCC(S(=O)(=O)c2cccc(S(=O)(=O)N3CCCC3)c2)C1 (centres undefined),-12.1%
16,Cc1ccc([C@]2(O)CC[C@H]3CN(Cc4ccccc4F)C[C@H]32)nc1,-9.24%
17,Cc1ccc(-n2cnnn2)cc1NCC(=O)Nc1ccccc1Cl,-101%
18,CC(C)C(C(=O)NC1CCOCC1)n1cnc2cc(F)c(F)cc21 (centres undefined),1.78%
19,COCC(NC(=O)c1cnn(C)c1)c1cccc(C(F)(F)F)c1 (centres undefined),2.36%
20,CCc1noc(CN(Cc2cccs2)C2CC2)n1,0.387%
21,C[C@]1(O)CCN(Cc2ncccc2F)C[C@@H]1Oc1cccc(F)c1,-3.05%
22,O=C(CCO)N1CCC2(CCc3ccc(-c4ccoc4)cc32)CC1,-12.5%
